Measured values taken from US8865659B2, “Compositions for prevention or treatment of Hepatitis C virus containing ginsenoside Rg3 as an active ingredient” (priority 2012, dated 2014).

Assays:
cleaved PARP = assay: Western blotting against cleaved PARP (apoptosis) in JFH-1 infected Huh 7.5.1 cells; type: cell-based
Description: The experiment was carried out as follow. First, 200,000 Huh 7.5.1 cells were placed in a 60×15 mm cell culture dish. Next day, Japanese Fulminant Hepatitis-1 virus (JFH-1) stock vial which was stored in −70° C. refrigerator was taken out and thawed out in a container filled with ice-water. The culture medium was collected from the cultured 60×15 mm cell culture dish, washed with 1×PBS and collected, again. 1.5 ml of JFH-1 virus solution per 60×15 mm cell culture dish each was added. The dish was shaken to cover the surface sufficiently. The dish was laid in a 5% CO2 incubator at 37° C. for 6 hours and after that, the supernatant was draw out. 1×PBS was spread on the cell surface as slow as possible and after one time washing, cells were collected. 5 ml of cell culture media was added to control and JFH-1 treatments groups. At the last step of virus-infection, 5 ml CM and each […] of ginsenosides which was set to 50 mM concentration were added to the cell culture media. After that, the cell culture media was laid in a 5% CO2 incubator at 37° C. After 72 hours, the following steps were carried out.
As described in the above Example 3, the Huh 7.5.1 cells were treated with each 100 μM of seven ginsenosides (Ro, Re, Rg1, Rg2, Rg3, Rh1, Rh2). After 72 hours, a western blotting analysis was carried out for analyzing virus suppression effect against HCV CORE and cleaved PARP. […]

HCV NS3/4A protease = molecular target: T1, HCV NS3/4A protease (Hepatitis C virus genotype 2a, UniProt Q99IB8); assay: HCV NS3/4A protease activity (HCV Protease Assay kit, ANASPEC); type: biochemical
T1 construct: Diluted HCV NS3 protease to an appropriate concentration in assay buffer; expressed in transfected cells; host or cells: HCV replicon-containing Huh7 cells (membrane fractions)
Description: HCV Protease Assay kit (ANASPEC) was used to the following experiments. The components, description and quantity were as follows:
Diluted HCV protease substrate (Component A) 1:50 in assay buffer.
Diluted HCV NS3 protease to an appropriate concentration in assay buffer.
b) Mixed an equal volume of the HCV NS3 protease diluent and Pep4AK diluent. Incubated the mixture at 23-25° C. for 15 min.
The HCV replicon-containing cells (e.g. 1×10^7-10^8 Huh7 cells) grew to 90% confluence. The cells were washed with 1× phosphate-buffered saline once, and then the cells were detached by scraping. The cell pellets were harvested by centrifuging at 900×g for 10 min at 4° C. The cell pellets were resuspended with 1 mL of hypotonic buffer (10 mM Tris-HCl, pH 7.8, 10 mM NaCl), and then the cell pellets were incubated on ice for 15-20 min. The cell pellets were disrupted with 50 strokes of a tight fitting pestle in a Dounce homogenizer. The homogenate was centrifuged at 900×g for 5 min at 4° C. to remove the nuclei, which was in the pellet. […]
For kinetics reading: Immediately started measuring fluorescence intensity at Ex/Em=490 nm/520 nm continuously and recorded data every 5 min for 30 to 60 min.
For end-point reading: Incubated the reaction at room temperature for 30 to 60 minutes. […] Then measured fluorescence intensity at Ex/Em=490 nm/520 nm.

T1 sequence (Q99IB8 1031-1661): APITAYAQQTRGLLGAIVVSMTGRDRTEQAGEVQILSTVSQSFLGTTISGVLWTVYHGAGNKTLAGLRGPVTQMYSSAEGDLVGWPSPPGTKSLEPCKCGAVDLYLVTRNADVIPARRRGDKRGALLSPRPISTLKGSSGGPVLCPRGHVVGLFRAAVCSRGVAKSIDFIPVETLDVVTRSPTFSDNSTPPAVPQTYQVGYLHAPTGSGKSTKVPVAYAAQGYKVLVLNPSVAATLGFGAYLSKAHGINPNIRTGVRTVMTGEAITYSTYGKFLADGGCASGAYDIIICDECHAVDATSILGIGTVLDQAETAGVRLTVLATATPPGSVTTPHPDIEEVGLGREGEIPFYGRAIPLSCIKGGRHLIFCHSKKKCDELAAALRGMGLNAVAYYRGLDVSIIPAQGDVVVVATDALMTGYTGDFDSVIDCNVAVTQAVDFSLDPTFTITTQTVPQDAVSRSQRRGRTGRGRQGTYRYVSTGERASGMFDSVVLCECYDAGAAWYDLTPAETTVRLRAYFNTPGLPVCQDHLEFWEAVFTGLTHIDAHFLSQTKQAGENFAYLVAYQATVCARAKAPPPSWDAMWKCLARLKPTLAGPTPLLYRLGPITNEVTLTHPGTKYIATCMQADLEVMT
T1 sequence (Q99IB8 1662-1715): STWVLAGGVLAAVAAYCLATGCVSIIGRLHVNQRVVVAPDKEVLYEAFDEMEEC

CC(C)=CCC[C@](C)(O)[C@H]1CC[C@]2(C)[C@@H]1[C@H](O)C[C@@H]1[C@@]3(C)CC[C@H](O[C@@H]4O[C@H](CO)[C@@H](O)[C@H](O)[C@H]4O[C@@H]4O[C@H](CO)[C@@H](O)[C@H](O)[C@H]4O)C(C)(C)[C@@H]3CC[C@]12C [ginsenoside Rg3]
apoptosis of the cells (cleaved PARP), dose dependence (cleaved PARP; 10 μM, 25 μM, 50 μM and 100 μM): dose-dependent manner
cleaved PARP (cleaved PARP; 100 μM, 72 hours): decreased
NS3/4 protease activity (HCV NS3/4A protease): inhibited
NS3/4 protease activity, dose dependence (HCV NS3/4A protease): dose-dependent manner
